Non-standard residues stand in square brackets, D forms with d. Residues, ends and D or L forms follow the SMILES beside them. pGlu = O=C1CC[C@@H](C(=O)O)N1; Thz = O=C(O)[C@@H]1CSCN1
Test system: patients with chronic diarrhoea caused by Crohn's disease or ulcerative colitis
Assay: open-label pilot trial in patients with chronic diarrhoea caused by Crohn's disease or ulcerative colitis
Assay type: in vivo
Description: Three patients with chronic diarrhoea caused by Crohn's disease without resection, aged 44 to 63 years (2 female) and three patients with chronic diarrhoea caused by ulcerative colitis, aged 50 to 65 years (1 female) were enrolled in an open-label pilot trial to receive twice a day the composition as per the Example 4 for 12 weeks.

[1] = composition as per Example 4 twice a day for 12 weeks, 3 Crohn's disease and 3 ulcerative colitis patients

SMILES: O=C1CC[C@@H](C(=O)N2CSC[C@H]2C(=O)O)N1 [pidotimod, (4R)-3-(5-oxo-L-prolyl)-1,3-thiazolidine-4-carboxylic acid] ([pGlu]-[Thz]-OH)
- role in inflammatory bowel disease (IBD) in controlling signs and symptoms such as chronic diarrhea (administered twice daily for 12 weeks, study conclusion): beneficial role
- frequency of stools (composition as per Example 4 (oral solution, 5.10% pidotimod) twice a day for 12 weeks, 3 Crohn's disease and 3 ulcerative colitis patients): significantly decreased
- bowel transit time [1]: prolonged
- stool consistency [1]: became more solid
- weight of stools [1]: significantly decreased
